According to patent US9522881B2, “Hydroxyindole carboxylic acid based inhibitors for oncogenic Src homology-2 domain containing protein tyrosine phosphatase-2 (SHP2)” (Indiana University Research and Technology Corporation, priority 2013, dated 2016):

How the values were obtained:
[1] = tested on: growth factor stimulated ERK1/2 activation; conditions: cited from earlier work
[2] = tested on: 32D myeloid cells bearing KITD814V; conditions: previously shown (Mali et al., 2012); cited from earlier work
[3] = tested on: 32D myeloid cells bearing KITD814V; assay: Proliferation (thymidine incorporation) of 32D myeloid cells bearing KITD814V; assay type: cell-based
Description: (§1) FIG. 8A is a graph depicting 32D myeloid cells bearing wild-type (WT) KIT or KITD814V that were starved of serum and growth factors for 6 hours and subjected to proliferation assay in the presence or absence of the indicated concentration of II-B08 or 11a-1 as analyzed in Example 6. Assay was performed in the presence of IL-3 (10 ng/mL) for cells bearing WT KIT and in the absence of growth factors for cells bearing oncogenic KITD814V. Bars denote the mean thymidine incorporation (CPM±SEM) consolidated from four independent experiments performed in triplicate. *p<0.05.
(§2) To further determine the efficacy of compound 11a-1, the growth of oncogenic KITD814V bearing 32D myeloid cells in the presence of II-B08 and 11a-1 were compared. Specifically, the wild-type (WT) KIT and KITD814V were inserted into the bicistronic retroviral vector, MIEG3, upstream of the internal ribosome entry site (IRES) and the enhanced green fluorescent protein (EGFP) gene as previously described in Mali et al., 2012. Retroviral supernatants for transduction of 32D myeloid cells and primary hematopoietic stem and progenitor cells were generated using Phoenix ecotropic packaging cell line transfected with retroviral vector plasmids using a calcium phosphate transfection kit (Invitrogen, Carlsbad, Calif.). Supernatants were collected 48 hours after transfection and filtered through 0.45 μm membranes. 32D myeloid cells were infected twice at 24-hour intervals with 2 mL high/titer virus supernatant in the presence of 10 ng/mL IL-3 and 8 μg/mL polybrene. Forty-eight hours after infection, 32D cells expressing WT KIT or KITD814V receptors were sorted to homogeneity based on EGFP expression and utilized to perform all of the experiments.

[4] = tested on: 32D myeloid cells bearing wild-type (WT) KIT; assay: Proliferation (thymidine incorporation) of 32D myeloid cells bearing WT KIT; assay type: cell-based; conditions: tested concentrations, with IL-3
Description: as §1
as §2, with “32D myeloid cells were infected twice at 24-hour intervals with 2 mL high/titer virus supernatant in the presence of 10 ng/mL IL-3 and 8 μg/mL polybrene. Forty-eight hours after infection, 32D cells expressing WT KIT or KITD814V receptors were sorted to homogeneity based on EGFP expression and utilized to perform all of the experiments.” left out

[5] = tested on: leukemic mice; conditions: together with PI3Kinase inhibitor LY294002, compared to either inhibitor alone; cited from earlier work
[6] = tested on: hematopoietic progenitor; conditions: cited from earlier work

Cn1c(-c2ccccc2)c(-c2cn(CCC(=O)Nc3ccc(-c4ccccc4)cc3)nn2)c2cc(C(=O)O)c(O)cc21 [IIB08]
growth factor stimulated ERK1/2 activation [1]: blocked | oncogenic KITD814V induced ligand independent growth [2]: suppressed | ligand independent growth of KITD814V bearing 32D cells ([3]; 1 μM): not at 1 μM concentration | ligand independent growth of KITD814V bearing 32D cells ([3]; 5 μM): significant suppression | growth of WT KIT bearing 32D cells [4]: no significant suppression | survival of leukemic mice [5]: significantly prolonged the survival | hematopoietic progenitor proliferation [6]: blocked
